Series [1] is described as follows: (§1) Mean steady-state pharmacokinetic parameters for Estradiol evaluated after a single dose of 2 mg of Estradiol as estridiol vaginal ring. The series is classed as ADME, organism-based. Also on record: dose 2 mg, route vaginal. As to conditions: human, in vivo, dosed compound id 17, dosed compound name ESTRADIOL, gender female, regimen Single dose, sampling time1 12 weeks, tissue Serum.

Another series is filed under the species Homo sapiens. The description is as §1. The series is classed as ADME, organism-based. Also on record: dose 2 mg, route vaginal. As to conditions: in vivo, other, dosed compound id 17, dosed compound name ESTRADIOL, gender female, regimen Single dose, sampling time1 12 weeks, tissue Serum.

What is called Cmax is the peak of the concentration-time curve. In general, Tmax refers to the time from dosing to the highest level. As for `C[C@]12CC[C@@H]3c4ccc(O)cc4CC[C@H]3[C@@H]1CC[C@@H]2O` [ESTRADIOL], the Cmax in series [1] (2 mg) turned out to be 0.0632 ng/mL; in the series filed under Homo sapiens, 0.0556 ng/mL. The Tmax in series [1] (dose 2 mg, route vaginal) lay within 30 to 60 min. Moreover, in series [1] (dose 2 mg, route vaginal, read-out: Css-12w), the concentration at 12 weeks stood at 0.008 ng/mL.

The values above are taken from ChEMBL document CHEMBL3832022, “DailyMed|setid=50ee3815-7675-4bc0-a88a-ab3886aea795 | ESTRING - estradiol ring|Physicians Total Care, Inc”.
